Reference: ChEMBL document CHEMBL5036379, “Identification of Slow-Binding Inhibitors of the BoNT/A Protease” (ACS Med Chem Lett, 2022)
Activity calls are given as the source filed them. The rule behind the calls is not given here.

Legend:
[1] = target: Botulinum neurotoxin type A (Clostridium botulinum, UniProt P0DPI0); assay: Inhibition of Clostridium botulinum BoNT/A light chain assessed as inhibition constant at 10 nM using SNAPtide flp6 as substrate measured after 30 mins by FRET assay
[2] = target: Botulinum neurotoxin type A (Clostridium botulinum) (UniProt P0DPI0); assay: Inhibition of BoNT/A light chain at 1 to 32 uM using SNAPtide flp6 as substrate measured after 30 mins by FRET assay; settings: dose 1-32 µM, TDE = time-dependent effect
[3] = target: Botulinum neurotoxin type A (Clostridium botulinum) (UniProt P0DPI0); assay: Inhibition of Clostridium botulinum BoNT/A light chain assessed as inhibition constant at 6 to 30 uM using SNAPtide flp6 as substrate measured after 30 mins by FRET assay; settings: dose 6-30 µM
[4] = Half life of compound; format: physicochemical

Botulinum neurotoxin type A, sequence (P0DPI0 2-448 limits assumed): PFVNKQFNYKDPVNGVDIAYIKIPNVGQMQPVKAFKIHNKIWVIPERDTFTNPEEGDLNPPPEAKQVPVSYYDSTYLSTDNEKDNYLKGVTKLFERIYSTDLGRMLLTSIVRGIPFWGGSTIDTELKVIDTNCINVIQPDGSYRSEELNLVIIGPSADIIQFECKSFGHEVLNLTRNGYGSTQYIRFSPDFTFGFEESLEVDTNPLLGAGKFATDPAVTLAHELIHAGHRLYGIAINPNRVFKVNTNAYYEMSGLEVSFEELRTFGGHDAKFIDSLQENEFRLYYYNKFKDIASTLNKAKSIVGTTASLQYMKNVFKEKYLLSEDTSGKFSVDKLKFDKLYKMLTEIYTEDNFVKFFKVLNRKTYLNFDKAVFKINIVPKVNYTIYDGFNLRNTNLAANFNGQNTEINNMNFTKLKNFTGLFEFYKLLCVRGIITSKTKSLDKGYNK
Botulinum neurotoxin type A (Clostridium botulinum), sequence (P0DPI0 2-448 limits assumed): as above

| SMILES | Ki [1] | inhibition [2] | inhibition [3] | half-life [4] |
| --- | --- | --- | --- | --- |
| C=CCCCCN(O)C(=O)/C=C/c1ccc(Cl)cc1Cl | 6.31 µM | Tde | – | – |
| C=CCCCN(O)C(=O)/C=C/c1ccc(Cl)cc1Cl | > 8 µM | Tde | – | – |
| O=C(/C=C/c1ccc(Cl)cc1Cl)N(O)CCCCCC1CC1 | – | – | Active | 33 min |
| CCCCCCCN(O)C(=O)/C=C/c1ccc(Cl)cc1Cl | 2.47 µM | – | – | – |
| C=CCN(O)C(=O)/C=C/c1ccc(Cl)cc1Cl | > 16 µM | – | – | – |
| C=CN(O)C(=O)/C=C/c1ccc(Cl)cc1Cl | > 32 µM | – | – | – |
| C=CCCCCCCN(O)C(=O)/C=C/c1ccc(Cl)cc1Cl | 2.84 µM | Tde | – | – |
| C=CCCCCCN(O)C(=O)/C=C/c1ccc(Cl)cc1Cl | 4.66 µM | Tde | – | – |
